# Values joined by “and” are separate entries in the source; they are usually repeats but may differ in a detail not shown here. Equal entries are not always repeated. “Also recorded” adds a separate entry of the source. Where two headings read alike, the source gives them in different places.
# How the values were obtained:
# murine L1210 lymphocytes = assay: DNA alkaline elution filter assay, DNA damage in murine L1210 lymphocytes; type: cell-based
# Source text: (§1) By means of the DNA alkaline elution filter assay technique, it is possible to assess the nature of damage induced in DNA by exposure to drugs and other agents. Depending on the assay conditions, DNA lesions can be quantified as direct strand breaks, DNA-DNA interstrand crosslinks, and protein-associated strand breaks and crosslinks. The action of akylating-type drugs on DNA typically results in a predominant formation of direct DNA single-strand breaks and DNA-DNA crosslinks. DNA intercalating agents show a preponderance of protein-associated DNA damage, detectable as protein-associated single-strand breaks and DNA-protein crosslinks.
# (§2) The nature of nitrosoureidoanthracycline-induced DNA damage in murine L1210 and human CLL lymphocytes was assessed by means of the alkaline elution filter technique. Murine L1210 leukemic lymphocytes, like P388/S lymphocytes, are known to contain high levels of topoisomerase II.
# (§3) *All concentrations 1 μM, 1hr incubation. Each entry represents the
# (§4) mean of at least two experiments, frequency per 10^6 nucleotides;
# (§5) statistically significant increase above background underlined. DB, direc
# (§6) (nonenzymatic) DNA breaks; PAB, proteinassociated DNA cleavage; DDCL,
# (§7) interstrand DNA crosslinks; DPCL, DNAprotein crosslinks.
# murine P388 leukemia = conditions: this protocol, cited from earlier work
# DNA topoisomerase II = assay: Drug-stimulated topoisomerase II-mediated DNA cleavage assay (end-labeled PMC41 DNA); type: biochemical
# Source text: FIGS. 5A and 5B are a photographic reproduction of the results of drug-stimulated topoisomerase II-mediated DNA cleavage assays performed on various compounds, including compounds of the present invention.
# DNA intercalation is a necessary but not a sufficient requirement for DNA topoisomerase II-mediated DNA cleavage. Accordingly, determination of drug-induced enzyme inhibition requires direct assay with isolated topoisomerase II. These assays involve determination of drug-enhanced topoisomerase II-mediated cleavage of PMC41 DNA appropriately end-labeled with [α-^32 P]dATP. As better seen in FIG. 5B, lane B, purified topoisomerase II, under the assay conditions, causes fragmentation of the DNA (background cleavage), as indicated by the radioautographic appearance of bands of cleaved DNA having differing mass values.
# [1] = tested on: murine L1210 leukemia cells; assay: Clonogenic assay with cultured murine L1210 leukemia cells, 1 h drug exposure (LD90); type: cell-based; conditions: Mus musculus, L1210; 1 hr drug exposure; read-out: L1210 LD90 (dose killing 90% of clonogens)
# Protocol: (§8) Culture and bioassay conditions were as described in Cancer Chemotherapy Pharmacology 20:277 (1987) "Comparative Effects of Adriamycin and DNA-nonbinding Analogues on DNA, RNA, and Protein Synthesis in Vitro", Israel et al., except that cell counts were determined by hemocytometer rather than by automated cell counting.
# +Dose killing 90% of clonogens, 1hr. drug exposure.
# [2] = tested on: plasmid PC15 supercoiled DNA; assay: DNA unwinding assay (interference with DNA topoisomerase I-mediated unwinding; drug-DNA intercalation); type: biochemical; conditions: for relative strength of drug-DNA intercalation (arbitrary scale): 0 = no intercalation, 9 = very strong intercalation
# Source text: DNA unwinding assays were used to measure the ability of a test drug to interfere with DNA topoisomerase I-mediated unwinding of plasmid PC15 supercoiled DNA. DNA topoisomerase I controls the topology of double-stranded DNA and is itself not inhibited by DNA intercalating agents. Rather, intercalating agents cause distortion of the torsional angle between adjacent DNA strand components and thereby interfere with the ability of topoisomerase I to convert supercoiled DNA into relaxed forms. Accordingly, this assay is taken as the definitive test of drug-DNA intercalation.
# Drugs were tested at 4 concentrations over a 125-fold concentration range. […] These compounds are 2-chloroethylurea derivatives of daunorubicin and adriamycin, respectively (i.e. not nitrosoureas, but chemical intermediates from which the nitrosoureas were derived).
# [3] = tested on: murine P388/adriamycin-resistant leukemia; assay: In vivo antitumor activity vs. murine P388/adriamycin-resistant leukemia (P388/ADR); conditions: for increase in life span: P388/ADR in vivo, lack of response confirmed
# Source text: (§9) Assays were run essentially according to the established protocols of the U.S. National Cancer Institute (Geran et al., 1972 "Protocols for Screening Chemical Agents and Natural Products Against Animal Tumors and Other Biological Systems" (3rd Ed.), Cancer Chemotherapy Rep. [3]33, 1-103.), with the test agent given at 3-5 incremental dose levels in each screening experiment and with median survival of treated groups referenced against data for untreated controls.
# (§10) *B6D2F1 males; 1 × 10^6 tumor cell inoculum ip day 0; treatment
# [4] = tested on: murine P388/adriamycin-resistant leukemia; conditions: Johnson et al. (1976); cited from earlier work
# [5] = tested on: human CEM leukemic lymphocytes; assay: Growth inhibition of human CEM leukemic lymphocyte suspension cultures, 48 h continuous drug exposure (ID50); type: cell-based; conditions: Homo sapiens, Lymphocyte; suspension culture, 48 hr continuous drug exposure (Table 3); read-out: CEM, ID50 (50% growth-inhibitory concentration)
# Protocol: as §8
# human CLL lymphocytes = assay: DNA alkaline elution filter assay, DNA damage in human CLL lymphocytes; type: cell-based
# Source text: as §1, §2, §3, §4, §5, §6, §7
# B-cell type lymphocytes freshly obtained from patients with chronic lymphocytic leukemia (CLL) show undetectable levels of topoisomerase II.
# [6] = tested on: murine P388/adriamycin-resistant leukemia; conditions: mouse, in vivo, ip
# Source text: as §9, §10
# [7] = L1210, 1 μM, 1 hr incubation, 0 hr after treatment
# [8] = CLL, 1 μM, 1 hr incubation, 0 hr after treatment
structure (smiles),measurement,setting,value
"COc1cccc2c1C(=O)c1c(O)c3c(c(O)c1C2=O)C[C@@](O)(C(=O)CO)C[C@@H]3O[C@H]1C[C@H](N)[C@H](O)[C@H](C)O1 [Adriamycin, adriamycin, reference compound]",pattern of DNA damage,murine L1210 lymphocytes; L1210,"significant amounts of protein-associated single-strand breaks, without producing much in the way of direct strand breaks and DNA-DNA interstrand cross-links"
same,"DB, direct (nonenzymatic) DNA breaks",murine L1210 lymphocytes; [7],-0.1 frequency per 10^6 nucleotides
same,"DD-CL, interstrand DNA crosslinks",murine L1210 lymphocytes; [7],0.1 frequency per 10^6 nucleotides
same,"longterm survivors, historical results",murine P388 leukemia; optimal dose 3.0 mg/kg,infrequent longterm survivors
same,enhancement of topoisomerase II-mediated DNA cleavage,DNA topoisomerase II; 625-fold concentration range,at low concentrations adriamycin enhances DNA fragmentation
same,concentration at which background cleavage is eliminated,DNA topoisomerase II; and higher,≥ 4.6 μM and ≥ 2.5 μg/ml
same,IC90,[1],310 nM
same,relative strength of drug-DNA intercalation (arbitrary scale),[2],7
same,interference with topoisomerase I-mediated conversion of supercoiled DNA / intercalation,"[2]; 4 concentrations, 125-fold range",concentration-dependent ability to interfere with the conversion of supercoiled DNA to relaxed forms; also recorded: ability of increasing concentrations of adriamycin (positive control) to interfere with the conversion of supercoiled DNA to relaxed forms
same,increase in life span,[3],0%
same,in vivo sensitivity of P388/ADR,[4],insensitive to adriamycin in vivo
same,IC50,[5],55 nM
same,pattern of DNA damage,human CLL lymphocytes; CLL B-cell lymphocytes,cannot be detected in these cells to any significant level
same,"DB, direct (nonenzymatic) DNA breaks",human CLL lymphocytes; [8],0.1 frequency per 10^6 nucleotides
same,"DD-CL, interstrand DNA crosslinks",human CLL lymphocytes; [8],0.0 frequency per 10^6 nucleotides
same,"DP-CL, DNA-protein crosslinks",human CLL lymphocytes; [8],0.1 frequency per 10^6 nucleotides
same,"PAB, protein-associated DNA cleavage",human CLL lymphocytes; [8],0.1 frequency per 10^6 nucleotides
"COc1cccc2c1C(=O)c1c(O)c3c(c(O)c1C2=O)C[C@@](O)(C(C)=O)C[C@@H]3O[C@H]1C[C@H](N)[C@H](O)[C@H](C)O1 [Daunorubicin, daunorubicin]","Net mean percent weight change, day 7",[6]; 2 mg/kg,-0.5%
same,"Net mean percent weight change, day 7",[6]; 3 mg/kg,-7%
same,"Net mean percent weight change, day 7",[6]; 4 mg/kg,-7%
same,"Net mean percent weight change, day 7",[6]; 12 mg/kg,-13%
same,"Net mean percent weight change, day 7",[6]; 15 mg/kg,-13%
same,"Net mean percent weight change, day 7",[6]; 18 mg/kg,-28%
same,"ILS, historical results",murine P388 leukemia; optimal dose 2.0 mg/kg,+75 - +100%
same,"longterm survivors, historical results",murine P388 leukemia; optimal dose 2.0 mg/kg,no longterm survivors
same,IC90,[1],900 nM
same,relative strength of drug-DNA intercalation (arbitrary scale),[2],7
same,toxicity flag,"[3]; 18.0 mg/kg, d1 only",Toxic
same,increase in life span,[3],0%
same,Long-term survivors,"[3]; ip, 1.0 mg/kg qd 1-4",0/6
same,Median increase in lifespan,"[3]; ip, 1.0 mg/kg qd 1-4",+9%
same,Median survival,"[3]; ip, 1.0 mg/kg qd 1-4",12 days
same,"Net mean percent weight change, day 7","[3]; ip, 1.0 mg/kg qd 1-4",+20%
same,Range of death (dying animals),"[3]; ip, 1.0 mg/kg qd 1-4",11 to 12 days
same,Long-term survivors,"[3]; ip, 2.0 mg/kg qd 1-4",0/7
same,Median increase in lifespan,"[3]; ip, 2.0 mg/kg qd 1-4",0%
same,Median survival,"[3]; ip, 2.0 mg/kg qd 1-4",11 days
same,Range of death (dying animals),"[3]; ip, 2.0 mg/kg qd 1-4",11 to 12 days
same,Long-term survivors,"[3]; ip, 3.0 mg/kg qd 1-4",0/7
same,Median increase in lifespan,"[3]; ip, 3.0 mg/kg qd 1-4",0%
same,Median survival,"[3]; ip, 3.0 mg/kg qd 1-4",11 days
same,Range of death (dying animals),"[3]; ip, 3.0 mg/kg qd 1-4",10 to 12 days
same,Long-term survivors,"[3]; ip, 4.0 mg/kg qd 1-4",0/7
same,Median increase in lifespan,"[3]; ip, 4.0 mg/kg qd 1-4",-9%
same,Median survival,"[3]; ip, 4.0 mg/kg qd 1-4",10 days
same,Range of death (dying animals),"[3]; ip, 4.0 mg/kg qd 1-4",9 to 12 days
same,Long-term survivors,"[3]; ip, 12.0 mg/kg d1 only",0/7
same,Median increase in lifespan,"[3]; ip, 12.0 mg/kg d1 only",0%
same,Median survival,"[3]; ip, 12.0 mg/kg d1 only",10 days
same,Range of death (dying animals),"[3]; ip, 12.0 mg/kg d1 only",9 to 11 days
same,Long-term survivors,"[3]; ip, 15.0 mg/kg d1 only",0/7
same,Median increase in lifespan,"[3]; ip, 15.0 mg/kg d1 only",0%
same,Median survival,"[3]; ip, 15.0 mg/kg d1 only",10 days
same,Range of death (dying animals),"[3]; ip, 15.0 mg/kg d1 only",8 to 11 days
same,Long-term survivors,"[3]; ip, 18.0 mg/kg d1 only",0/7
same,Median survival,"[3]; ip, 18.0 mg/kg d1 only",8 days
same,Range of death (dying animals),"[3]; ip, 18.0 mg/kg d1 only",6 to 9 days
same,Median increase in lifespan,"[3]; ip, 18.0 mg/kg d1 only, ** Toxic",-20%
same,in vivo sensitivity of P388/ADR,[4],cross-resistant to daunorubicin
same,IC50,[5],30 nM

# — patent publication US4973675A, “Hybrid nitrosoureidoanthracyclines having antitumor activity” (University of Tennessee Research Center, priority 1989, dated 1990)
